Structures are written as SMILES. Where a name gives a salt, the structure may show the parent alone.

The first data set concerns α1 -adrenoceptor. The data set can be described thus: α1-adrenoceptor blocking effect, preparation from the thoracic aorta of rabbit, Magnus method.
Settings: not given
The class given is cell-based. The protocol:
Blocking of α1 -adrenoceptor
The α1 -adrenoceptor blocking effect was determined using a preparation from the thoracic aorta of rabbit, according to the Magnus method and expressed as pA2 value.
Take `COc1c(C)c(C)c(O)c(C)c1CN(C)CCOc1cc(C)c(O)cc1C(C)C` [Ex. 1, N-(3-hydroxy-6-methoxy-2,4,5-trimethylbenzyl)-N-methyl-2-(4-hydroxy-2-isopropyl-5-methylphenoxy)ethylamine]: the pA2 value was 9.0.

In turn, `Cc1cc(OCCN(C)Cc2c(C)c(O)c(C)c(C)c2OCCO)c(C(C)C)cc1O` [Ex. 2, N-{3-hydroxy-6-(2-hydroxyethoxy)-2,4,5-trimethylbenzyl}-N-methyl-2-(4-hydroxy-2-isopropyl-5-methylphenoxy)ethylamine] gave a pA2 value of 8.1.

Take `COc1c(C)c(C)c(O)c(C)c1CNCCOc1cc(C)c(NC(C)=O)cc1C(C)C` [Ex. 3, N-(3-hydroxy-6-methoxy-2,4,5-trimethylbenzyl)-2-(4-acetylamino-2-isopropyl-5-methylphenoxy)ethylamine]: the pA2 value was 8.2.

In turn, `CCOc1c(C)c(C)c(O)c(C)c1CN(C)CCOc1cc(C)c(O)cc1C(C)C` [Ex. 4, N-(2-ethoxy-5-hydroxy-3,4,6-trimethylbenzyl)-N-methyl-2-(4-hydroxy-2-isopropyl-5-methylphenoxy)ethylamine] displayed a pA2 value of 8.5.

Compound `CCOc1c(C)c(C)c(OC(C)=O)c(C)c1CN(C)CCOc1cc(C)c(OC(C)=O)cc1C(C)C` [Ex. 5, N-(3-acetoxy-6-ethoxy-2,4,5-trimethylbenzyl)-N-methyl-2-(4-acetoxy-2-isopropyl-5-methylphenoxy)ethylamine] returned a pA2 value of 8.3.

Compound `CCN(CC)CCN(CCOc1cc(C)ccc1C(C)C)Cc1c(C)c(O)c(C)c(C)c1OC` [Ex. 6, N-(2-diethylaminoethyl)-N-(3-hydroxy-6-methoxy-2,4,5-trimethylbenzyl)-2-(2-isopropyl-5-methylphenoxy)ethylamine] registered a pA2 value of 7.5.

As to `CCN(CCOc1cc(C)c(Cl)cc1C(C)C)Cc1c(C)c(O)c(C)c(C)c1OC` [Ex. 7, N-ethyl-N-(3-hydroxy-6-methoxy-2,4,5-trimethylbenzyl)-2-(4-chloro-2-isopropyl-5-methylphenoxy)ethylamine], the pA2 value is on record as 7.7.

On to `COc1c(C)c(C)c(OC)c(CN(CCOc2cc(C)ccc2C(C)C)C(C)=O)c1C` [Ex. 8, N-{2-(2-isopropyl-5-methylphenoxy)ethyl}-N-(2,5-dimethoxy-3,4,6-trimethylbenzyl)acetamide], for which the pA2 value is 7.3.

For the compound `COc1c(C)c(C)c(O)c(C)c1CN(C)CCOc1cc(C)c(C(C)=O)cc1C(C)C` [Ex. 9, N-(3-hydroxy-6-methoxy-2,4,5-trimethylbenzyl)-N-methyl-2-(4-acetyl-2-isopropyl-5-methylphenoxy)ethylamine], the pA2 value stood at 7.5.

Compound `COc1c(C)c(C)c(OC)c(CN(C)CCOc2cc(C)c(NC(C)=O)cc2C(C)C)c1C` [Ex. 10, N-(2,5-dimethoxy-3,4,6-trimethylbenzyl)-N-methyl-2-(4-acetylamino-2-isopropyl-5-methylphenoxy)ethylamine] showed a pA2 value of 7.4.

The compound `COc1c(C)c(C)c(OC)c(CN(C)CCOc2cc(C)c(N)cc2C(C)C)c1C` [Ex. 11, N-(2,5-dimethoxy-3,4,6-trimethylbenzyl)-N-methyl-2-(4-amino-2-isopropyl-5-methylphenoxy)ethylamine] showed a pA2 value of 8.3.

Consider `COc1c(C)c(C)c(O)c(C)c1CN(C)CCOc1cc(C)ccc1C(C)C` [Ex. 12, N-(3-hydroxy-6-methoxy-2,4,5-trimethylbenzyl)-N-methyl-2-(2-isopropyl-5-methylphenoxy)ethylamine], for which the pA2 value is given as 8.1.

On to `COc1c(C)c(C)c(OC(C)C)c(C)c1CN(C)CCOc1cc(C)ccc1C(C)C` [Ex. 14, N-(3-isopropoxy-6-methoxy-2,4,5-trimethylbenzyl)-N-methyl-2-(2-isopropyl-5-methylphenoxy)ethylamine], for which the pA2 value is reported as 7.6.

Take `CCOc1c(C)c(C)c(OC)c(CN(C)CCOc2cc(C)ccc2C(C)C)c1C` [Ex. 15, N-(3-ethoxy-6-methoxy-2,4,5-trimethylbenzyl)-N-methyl-2-(2-isopropyl-5-methylphenoxy)ethylamine]: the pA2 value is 7.5.

Regarding `Cc1ccc(C(C)C)c(OCCN(C)Cc2c(C)c(O)c(C)c(C)c2OCCO)c1` [Ex. 16, N-{3-hydroxy-6-(2-hydroxyethoxy)-2,4,5-trimethylbenzyl}-N-methyl-2-(2-isopropyl-5-methylphenoxy)ethylamine], the pA2 value was 7.6.

As to `C=CCOc1c(C)c(C)c(OC(C)=O)c(C)c1CN(C)CCOc1cc(C)ccc1C(C)C` [Ex. 17, N-{3-acetoxy-6-(2-propenyloxy)-2,4,5-trimethylbenzyl}-N-methyl-2-(2-isopropyl-5-methylphenoxy)ethylamine], the pA2 value came to 7.4.

Compound `CCN(CCOc1cc(C)c(Cl)cc1C(C)C)Cc1c(C)c(OC(C)=O)c(C)c(C)c1OC(C)C` [Ex. 18, N-(3-acetoxy-6-isopropoxy-2,4,5-trimethylbenzyl)-N-ethyl-2-(4-chloro-2-isopropyl-5-methylphenoxy)ethylamine] had a pA2 value of 7.2.

For the compound `CCOc1c(C)c(C)c(O)c(CNCCOc2cc(C)ccc2C(C)C)c1C` [Ex. 19, N-(3-ethoxy-6-hydroxy-2,4,5-trimethylbenzyl)-2-(2-isopropyl-5-methylphenoxy)ethylamine], the pA2 value is 7.3.

In the case of `CCOc1c(C)c(C)c(OCc2ccccc2)c(CNCCOc2cc(C)ccc2C(C)C)c1C` [Ex. 20, N-(2-benzyloxy-5-ethoxy-3,4,6-trimethylbenzyl)-2-(2-isopropyl-5-methylphenoxy)ethylamine], the pA2 value amounted to 7.2.

The compound `COc1c(C)c(C)c(O)c(C)c1CNCCOc1cc(C)c(O)cc1C(C)C` [Ex. 21, N-(3-hydroxy-6-methoxy-2,4,5-trimethylbenzyl)-2-(4-hydroxy-2-isopropyl-5-methylphenoxy)ethylamine] returned a pA2 value of 9.8.

Compound `COc1c(C)c(C)c(O)c(C)c1CN(CCOc1cc(C)c(O)cc1C(C)C)C(C)C` [Ex. 22, N-(3-hydroxy-6-methoxy-2,4,5-trimethylbenzyl)-N-isopropyl-2-(4-hydroxy-2-isopropyl-5-methylphenoxy)ethylamine] gave a pA2 value of 7.5.

On to `COCCN(CCOc1cc(C)c(O)cc1C(C)C)Cc1c(C)c(O)c(C)c(C)c1OC` [Ex. 23, N-(3-hydroxy-6-methoxy-2,4,5-trimethylbenzyl)-N-(2-methoxyethyl)-2-(4-hydroxy-2-isopropyl-5-methylphenoxy)ethylamine], for which the pA2 value is 7.6.

As for `CCCOc1c(C)c(C)c(O)c(C)c1CN(C)CCOc1cc(C)c(O)cc1C(C)C` [Ex. 24, N-(3-hydroxy-6-propoxy-2,4,5-trimethylbenzyl)-N-methyl-2-(4-hydroxy-2-isopropyl-5-methylphenoxy)ethylamine], the pA2 value is reported as 8.3.

Consider `CCCCOc1c(C)c(C)c(O)c(C)c1CN(C)CCOc1cc(C)c(O)cc1C(C)C` [Ex. 26, N-(2-butoxy-5-hydroxy-3,4,6-trimethylbenzyl)-N-methyl-2-(4-hydroxy-2-isopropyl-5-methylphenoxy)ethylamine], for which the pA2 value amounted to 8.3.

`CC(=O)Oc1c(C)c(C)c(O)c(CN(C)CCOc2cc(C)c(O)cc2C(C)C)c1C` [Ex. 27, N-(3-acetoxy-6-hydroxy-2,4,5-trimethylbenzyl)-N-methyl-2-(4-hydroxy-2-isopropyl-5-methylphenoxy)ethylamine] gave a pA2 value of 8.1.

Consider `COc1c(C)c(C)c(OC)c(CN(C)CCOc2cc(C)c(O)cc2C(C)C)c1C` [Ex. 28, N-(2,5-dimethoxy-3,4,6-trimethylbenzyl)-N-methyl-2-(4-hydroxy-2-isopropyl-5-methylphenoxy)ethylamine], for which the pA2 value was found to be 9.0.

On to `COCCOc1c(C)c(C)c(O)c(C)c1CN(C)CCOc1cc(C)c(O)cc1C(C)C` [Ex. 29, N-{3-hydroxy-6-(2-methoxyethoxy)-2,4,5-trimethylbenzyl}-N-methyl-2-(4-hydroxy-2-isopropyl-5-methylphenoxy)ethylamine], for which the pA2 value is 8.2.

Compound `CCOc1c(C)c(C)c(O)c(C)c1CN(CCOc1cc(C)c(O)cc1C(C)C)C(C)C` [Ex. 30, N-(2-ethoxy-5-hydroxy-3,4,6-trimethylbenzyl)-N-isopropyl-2-(4-hydroxy-2-isopropyl-5-methylphenoxy)ethylamine] displayed a pA2 value of 7.2.

On to `CCN(CCOc1cc(C)c(O)cc1C(C)C)Cc1c(C)c(O)c(C)c(C)c1OC` [Ex. 31, N-ethyl-N-(3-hydroxy-6-methoxy-2,4,5-trimethylbenzyl)-2-(4-hydroxy-2-isopropyl-5-methylphenoxy)ethylamine], for which the pA2 value was 8.6.

As for `COc1cc(C(C)C)c(OCCN(C)Cc2c(C)c(OC)c(C)c(C)c2OC)cc1C` [Ex. 32, N-(2,5-dimethoxy-3,4,6-trimethylbenzyl)-N-methyl-2-(2-isopropyl-4-methoxy-5-methylphenoxy)ethylamine], the pA2 value came out at 7.2.

Take `CC(=O)Oc1cc(C(C)C)c(OCCN(C)C)cc1C` [moxisylyte hydrochloride, reference compound]: the pA2 value is 7.6.

As to `COc1cc2nc(N3CCN(C(=O)c4ccco4)CC3)nc(N)c2cc1OC` [prazosin hydrochloride, reference compound], the pA2 value amounted to 8.6.

The subject of the next data set is rabbit. The data set can be described thus: Orthostatic hypotensive effect, tilting of unanesthetized rabbit, orthostatic index (O.I.). In kind it is in vivo. As to conditions: iv, tilted 90°, without anesthetization. The text has this:
Orthostatic hypotensive effect
The orthostatic hypotensive effect was examined by the following method which is in accordance with the method of Journal of Pharmacological Methods, vol. 5, p. 53 (1981). A rabbit was fixed at the dorsal position without anesthetization on an orthostatic hypotension measurement apparatus. Polyethylene catheters were inserted in right femoral artery and right femoral vein, and the catheter inserted in the artery was connected to a pressure transducer. The head of the rabbit was tilted rapidly at an angle of 90° from the horizontal position at 15 min intervals with the heart position as a rotational axis, and brought back to the horizontal position one minute later. The tilting was repeated three times, and after confirmation of occurrence of a constant response, a drug was administered from the polyethylene catheter inserted in the vein. […] [formula] (2) Test results
Turning to `COc1c(C)c(C)c(O)c(C)c1CN(C)CCOc1cc(C)c(O)cc1C(C)C` [Ex. 1, N-(3-hydroxy-6-methoxy-2,4,5-trimethylbenzyl)-N-methyl-2-(4-hydroxy-2-isopropyl-5-methylphenoxy)ethylamine], the “Dose necessary for O.I. value to achieve 90%” value was 56.4 μg/kg, iv.

Turning to `CCOc1c(C)c(C)c(O)c(C)c1CN(C)CCOc1cc(C)c(O)cc1C(C)C` [Ex. 4, N-(2-ethoxy-5-hydroxy-3,4,6-trimethylbenzyl)-N-methyl-2-(4-hydroxy-2-isopropyl-5-methylphenoxy)ethylamine], the “Dose necessary for O.I. value to achieve 90%” value is listed as 61.3 μg/kg, iv.

With `COc1c(C)c(C)c(O)c(C)c1CNCCOc1cc(C)c(O)cc1C(C)C` [Ex. 21, N-(3-hydroxy-6-methoxy-2,4,5-trimethylbenzyl)-2-(4-hydroxy-2-isopropyl-5-methylphenoxy)ethylamine], the “Dose necessary for O.I. value to achieve 90%” value is listed as 32.8 μg/kg, iv.

On to `COc1c(C)c(C)c(OC)c(CN(C)CCOc2cc(C)c(O)cc2C(C)C)c1C` [Ex. 28, N-(2,5-dimethoxy-3,4,6-trimethylbenzyl)-N-methyl-2-(4-hydroxy-2-isopropyl-5-methylphenoxy)ethylamine], for which the “Dose necessary for O.I. value to achieve 90%” value is on record as 40.3 μg/kg, iv.

Take `COc1cc2nc(N3CCN(C(=O)c4ccco4)CC3)nc(N)c2cc1OC` [prazosin hydrochloride, reference compound]: the “Dose necessary for O.I. value to achieve 90%” value was 5.6 μg/kg, iv.

These data come from patent publication US5624961A, “Benzylaminoethoxybenzene derivatives, production thereof and use thereof” (priority 1994, dated 1997).
